Source: patent US11254720B2, “Methods and systems for designing and/or characterizing soluble lipidated ligand agents” (Tufts Medical Center, priority 2013, dated 2022)
Read-outs that look alike come from different tables or passages of the source. Each block holds one molecule with its values, some of them ahead of it. Non-standard residues stand in square brackets, D forms with d. Residues, ends and D or L forms follow the SMILES beside them. Tic = O=C(O)[C@@H]1Cc2ccccc2CN1

What was measured:
[1] = tested on: Adult CD1 mice; assay: Chronic constriction injury neuropathic pain model, von Frey and acetone tests; format: in vivo, mouse; conditions: intrathecal 100 pmol, 1 week after CCI
Description: Intrathecal injection of 1-stable chem (100 pmol), 1 week after CCI, reduces CCI-induced mechanical hypersensitivity (panels A+C) and cold allodynia (panel E). Intrathecal injection of ResolvinE1 (RvE1)(100 pmol), 1 week after CCI, reduces CCI-induced mechanical hypersensitivity (panels B+D) and cold allodynia (panel F). BL=baseline before surgery.
Adult CD1 mice (male, 25-35 g) were used for behavioral studies. Mice were group-housed and kept under a 12-hour light/dark cycle. […]
Nerve injury-induced mechanical allodynia and hypersensitivity were assessed by von Frey hairs as previously described (see Xu et al., Resolvin E1 inhibits neuropathic pain and spinal cord microglial activation following peripheral nerve injury, 2013, J. Neuroimmune Pharmacol, 8: 37-41). […] The 50% paw withdrawal threshold (PWT) was determined using Dixon's up-down method. For paw withdrawal frequency (PWF), the same von Frey hair (0.16 g) was applied 10 times and the number of positive responses to the stimulations counted. A positive response was scored if the mouse sharply withdrew the paw or flinched upon removal of the stimulus. […] In brief, a drop of acetone was placed against the plantar paw of the mouse and the mouse's response monitored for the next 20 seconds. […]

[2] = target: T1, CCK2R (Homo sapiens, UniProt P32239); assay: Antagonist inhibition of agonist-induced CCK2R signaling (luciferase); format: cell-based
T1 construct: expressed in transfected cells; host or cells: HEK293
T1 sequence (P32239 1-447): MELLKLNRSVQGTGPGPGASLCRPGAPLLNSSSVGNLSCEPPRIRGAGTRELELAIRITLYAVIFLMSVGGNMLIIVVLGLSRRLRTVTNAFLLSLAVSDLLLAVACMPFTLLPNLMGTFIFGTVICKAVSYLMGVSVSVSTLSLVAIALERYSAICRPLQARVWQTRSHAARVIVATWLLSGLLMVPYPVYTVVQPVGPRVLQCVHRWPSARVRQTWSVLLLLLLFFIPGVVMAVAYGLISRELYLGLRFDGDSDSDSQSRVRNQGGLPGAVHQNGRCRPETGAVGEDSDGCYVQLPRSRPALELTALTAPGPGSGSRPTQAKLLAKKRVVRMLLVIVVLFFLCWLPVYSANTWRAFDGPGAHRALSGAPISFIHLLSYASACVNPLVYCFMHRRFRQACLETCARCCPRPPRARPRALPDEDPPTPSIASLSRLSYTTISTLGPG
Method: A) YM022 blocks tethered CCK4-Gly mediated CCK2R signaling. HEK293 cells were cotransfected with cDNAs encoding: CCK2R, a 5X-SRE-Luc-pest reporter gene, tCCK4-Gly (as indicated), and a β-galactosidase gene to control for transfection efficiency. Four hours following transfection, cells were with treated with increasing concentrations of YM022 for 20 hours. […] B) YM022 blocks s-CCK-4-Gly-COOH and l-CCK4-Gly-COOH mediated activation of CCK2R. HEK293 cells were transfected as indicated above. Twenty hours after transfection, cells were with treated with increasing concentrations of YM022 together with either 10 μM of l-CCK4-Gly-COOH or s-CCK4-Gly-COOH. […] Abbreviations: tCCK4-Gly, tethered glycine extended CCK4; s-CCK4-Gly-COOH, soluble glycine extended CCK4 with a C-terminal free acid; 1-CCK4-Gly-COOH, lipidated glycine extended CCK4 with a C-terminal free acid; CCK2R, cholecystokinin 2 receptor.

[3] = target: T2, human CMKLR1 (Homo sapiens, UniProt Q99788); assay: Washout experiments (serial washes after 15 min ligand, luciferase readout); conditions: three washes after 15 min ligand
T2 sequence (Q99788 1-373): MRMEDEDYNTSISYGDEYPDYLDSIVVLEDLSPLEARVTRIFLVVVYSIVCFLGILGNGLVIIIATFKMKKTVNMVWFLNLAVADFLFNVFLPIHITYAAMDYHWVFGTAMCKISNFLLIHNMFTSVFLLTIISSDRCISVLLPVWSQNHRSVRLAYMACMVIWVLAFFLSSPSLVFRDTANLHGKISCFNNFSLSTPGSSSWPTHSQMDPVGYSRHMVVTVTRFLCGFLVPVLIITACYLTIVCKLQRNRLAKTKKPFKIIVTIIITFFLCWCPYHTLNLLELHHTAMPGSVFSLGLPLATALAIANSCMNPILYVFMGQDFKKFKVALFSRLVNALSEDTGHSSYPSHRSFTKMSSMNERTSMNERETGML
Method: (§1) Agonist activity was compared with and without serial washings shortly after addition of ligand. Briefly, HEK293 cells were plated and transfected as described above with the addition of a poly-L-lysine plate pretreatment step to enhance cell adhesion. Twenty-four hours after transfection, cells were stimulated with increasing concentrations of agonist for 15 minutes at 37° C. Selected wells were washed three times with serum-free media. Plates were then incubated for an additional 4 hours. Receptor mediated signaling was assessed using a luciferase based assay as described above.
(§2) HEK293 cells were transiently transfected with cDNAs encoding i) human or mouse CMKLR1, ii) a SRE5x-Luc reporter gene, iii) a Gαq5i66V chimera, and iv) a β-galactosidase control. Twenty-four hours after transfection, cells were stimulated with increasing concentrations of various ligands for 15 minutes. Selected wells were then washed three times with serum-free media and plates were further incubated for 4 hours.

[4] = target: T2, human CMKLR1; assay: SRE-luciferase reporter gene assay in transfected HEK293 cells; conditions: for Activity of membrane-tethered ligand at human CMKLR1: tethered ligand cDNA cotransfected, luciferase 24 hours after transfection
Method: (§3) Receptor-mediated signaling was assessed as previously described. Briefly, HEK293 cells were plated at a density of 6,000 cells/well into 96-well clear-bottom plates and grown to ˜80% confluence. […] Expression of Gq5i66V directs signaling of the Gαi-coupled chemerin receptor to stimulation of a Gαq-dependent SRE5x-Luc-PEST reporter gene. For experiments investigating the agonist function of soluble and lipidated peptides, tethered ligand cDNA was not included in the transfection mixture. Twenty four hours after transfection, cells were stimulated with or without peptide agonist for 4 hours in serum-free medium. […] Following ligand stimulation, the media was aspirated and luciferase activity measured using SteadyLite reagent and quantified using a TopCount NTX. A β-galactosidase assay was then performed following assessment of luminescence. Cleavage of 2-nitrophenyl β-D-galactopyranoside substrate was quantified after incubation of cell lysates at 37° C. for 30 to 60 minutes by measuring the optical density at 420 nm on a SpectraMax microplate reader. Luciferase reporter gene activities were normalized to corresponding β-galactosidase activity controls.
(§4) HEK293 cells were transiently transfected with cDNAs encoding i) human or mouse CMKLR1, ii) a SRE5x-Luc reporter gene, iii) a Gαq5i66V chimera, and iv) a β-galactosidase control. Twenty-four hours after transfection, cells were stimulated with ligand for 4 hours and luciferase activity determined as described in Experimental Procedures. Luciferase activity was normalized relative to the maximal value observed using saturating concentrations of the corresponding soluble ligand (=100%). […] As a next step, the effect of membrane anchoring on chemerin activity was examined. […] HEK293 cells were transiently transfected with cDNAs encoding i) various tethered ligands, ii) human or mouse CMKLR1, iii) a SRE5x-Luc reporter gene, iv) aGαq5i66V chimera, and v) a β-galactosidase control. Twenty-four hours after transfection, luciferase activity was determined as described in Experimental Procedures.
(§5) HEK293 cells were transiently transfected with cDNAs encoding i) 8 ng of various tethered ligands, ii) human or mouse CMKLR1, iii) a SRE5x-Luc reporter gene, iv) a Gαq5i66V chimera, and v) a β-galactosidase control. Twenty-four hours after transfection, luciferase activity was determined as described in Experimental Procedures.

[5] = target: T3, mouse CMKLR1 (Mus musculus, UniProt P97468); assay: Washout experiments (serial washes after 15 min ligand, luciferase readout); conditions: three washes after 15 min ligand
T3 sequence (P97468 1-371): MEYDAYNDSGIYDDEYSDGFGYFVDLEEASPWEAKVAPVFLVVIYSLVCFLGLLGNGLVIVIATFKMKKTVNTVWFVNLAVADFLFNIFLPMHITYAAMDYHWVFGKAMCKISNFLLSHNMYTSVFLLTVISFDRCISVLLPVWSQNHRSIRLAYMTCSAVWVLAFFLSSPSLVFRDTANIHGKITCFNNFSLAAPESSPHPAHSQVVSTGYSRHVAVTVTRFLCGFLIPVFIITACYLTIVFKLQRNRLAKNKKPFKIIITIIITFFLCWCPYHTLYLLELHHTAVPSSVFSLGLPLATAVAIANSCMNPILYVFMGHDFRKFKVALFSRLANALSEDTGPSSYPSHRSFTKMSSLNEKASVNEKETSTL
Method: as §1, §2

[6] = tested on: HEK293 cells transfected with vector control (pcDNA1.1); assay: Luciferase reporter assay in cells transfected with vector control; format: cell-based, human; conditions: cells transfected with pcDNA1.1 vector control
Method: as §3

[7] = target: T3, mouse CMKLR1; assay: SRE-luciferase reporter gene assay in transfected HEK293 cells; conditions: for Activity of membrane-tethered ligand at mouse CMKLR1: tethered ligand cDNA cotransfected, luciferase 24 hours after transfection
Method: as §3, §4, §5

Molecule: CC[C@@H](O)/C=C/C=C\C[C@@H](O)/C=C/C=C/C=C\[C@@H](O)CCCC(=O)O [RvE1, reference compound]
Time point at which a significant decrease in pain scores was observed [1]: 1 h

Molecule: Cc1cccc(NC(=O)N[C@@H]2N=C(c3ccccc3)c3ccccc3N(CC(=O)c3ccccc3C)C2=O)c1 [YM022]
IC50 ([2]; agonist l-CCK4-Gly-COOH 10 μM, 4 hours, read-out: IC50 for inhibition of l-CCK4-Gly-COOH induced CCK2R signaling): 10.2 nM
IC50 ([2]; agonist s-CCK4-Gly-COOH 10 μM, 4 hours, read-out: IC50 for inhibition of s-CCK4-Gly-COOH induced CCK2R signaling): 0.84 nM
IC50 ([2]; agonist tCCK4-Gly (tethered), antagonist 20 hours, read-out: IC50 for inhibition of tCCK4-Gly induced CCK2R signaling): 0.54 nM

Molecule: CC(C)C[C@H](NC(=O)[C@H](Cc1ccccc1)NC(=O)[C@H](N)Cc1ccc(O)cc1)C(=O)N1CCC[C@H]1C(=O)N[C@H](CO)C(=O)N[C@@H](CCC(N)=O)C(=O)N[C@@H](Cc1ccccc1)C(=O)N[C@H](C)C(=O)N1Cc2ccccc2C[C@H]1C(=O)N[C@@H](CO)C(=O)O [s-Stable Chem, reference compound] (H-[dY]FLP[dS]QF[dA][Tic]S-OH)
Agonist activity after serial washes, human CMKLR1 [3]: rapidly decreased
EC50 ([4]; pEC50, Human CMKLR1, no wash, mean ± S.E.M.): 61.7 nM
Agonist activity after serial washes, mouse CMKLR1 [5]: rapidly decreased
Agonist activity without CMKLR1 expression [6]: no agonist activity
EC50 ([7]; pEC50, Mouse CMKLR1, no wash, mean ± S.E.M.): 12 nM

B1: tChem 1-163: membrane-tethered ligand encoding pre-prochemerin (amino acids 1-163), TNFα transmembrane domain (protein)
chain: MSTSMIRDVELAEEALPKKTGGPQGSRRCLFSLFIVAGATTLFCLLHFGVIMRRLLIPLALWLGAVGVGVAELTEAQRRGLQVALEEFHKHPPVQWAFQETSVESAVDTPFPAGIFVRLEFKLQQTSCRKRDWKKPECKVRPNGRKRKCLACIKLGSEDKVLGRLVHCPIETQVLREAEEHQETQCLRVQRAGEDPHSFYFPGQFAFSKALPRS
modifications: left off: small tags and cut ends
Activity of membrane-tethered ligand at human CMKLR1 [4]: lack activity
Activity of membrane-tethered ligand at mouse CMKLR1 [7]: lack activity

B3: tChem 21-157: membrane-tethered full length chemerin (amino acids 21-157) (protein)
chain: MSTSMIRDVELAEEALPKKTGGPQGSRRCLFSLFIVAGATTLFCLLHFGVIELTEAQRRGLQVALEEFHKHPPVQWAFQETSVESAVDTPFPAGIFVRLEFKLQQTSCRKRDWKKPECKVRPNGRKRKCLACIKLGSEDKVLGRLVHCPIETQVLREAEEHQETQCLRVQRAGEDPHSFYFPGQFAFS
modifications: left off: small tags and cut ends
Activity of membrane-tethered ligand at human CMKLR1 [4]: activated
Activity of membrane-tethered ligand at mouse CMKLR1 [7]: activated

Continued, values first:

Activity of membrane-tethered ligand at human CMKLR1 [4]: activated
Activity of membrane-tethered ligand at human CMKLR1 ([4]; listed as FS): comparable activity
Activity of membrane-tethered ligand at mouse CMKLR1 [7]: activated
Molecule: tChem 149-157: membrane-tethered C-terminal chemerin peptide (amino acids 149-157), endogenous sequence ending phenylalanine-serine (MSTSMIRDVELAEEALPKKTGGPQGSRRCLFSLFIVAGATTLFCLLHFGVIYFPGQFAFS; left off: small tags and cut ends)

Activity of membrane-tethered ligand at human CMKLR1 [4]: lack activity
Activity of membrane-tethered ligand at mouse CMKLR1 [7]: lack activity
B2: tGalanin: negative control membrane-tethered ligand with the amino acid sequence of human galanin (protein)
chain: MSTSMIRDVELAEEALPKKTGGPQGSRRCLFSLFIVAGATTLFCLLHFGVIGWTLNSAGYLLGPHAVGNHRSFSDKNGLTS
modifications: left off: small tags and cut ends
